The species entered for experiment [1] is Oryctolagus cuniculus. As to the kind of experiment: Compound was tested for the inhibition of nitroazidobenzoyl-angiotensin II induced contraction of rabbit aortic strips. It counts as functional. The following applies: Aorta, read-out: ED50 (the source's name).
The species named for experiment [2] is Oryctolagus cuniculus. As to the kind of experiment: Compound was tested for the inhibition of nitroazidobenzoyl-angiotensin II induced contraction of rabbit aortic strips; pD2 is the negative logarithm of ED50. It counts as functional, Aorta.

Regarding `CC[C@H](C)[C@H](NC(=O)[C@H](Cc1ccc(O)cc1)NC(=O)[C@@H](NC(=O)[C@H](CCCNC(=N)N)NC(=O)[C@@H](N)CC(=O)O)C(C)C)C(=O)N[C@@H](Cc1cnc[nH]1)C(=O)N1CCC[C@H]1C(=O)N[C@@H](Cc1ccccc1)C(=O)O` [ANGIOTENSIN II], the EC50 in the experiment listed under Oryctolagus cuniculus [1] worked out at 3.63 nM. Moreover, the pD2 in the experiment filed under Oryctolagus cuniculus [2] was found to be 8.44.
In the same order, the values of `CC[C@H](C)[C@H](NC(=O)[C@H](Cc1ccc(O)cc1)NC(=O)[C@@H](NC(=O)[C@H](CCCN=C(N)N)NC(=O)[C@H](CC(=O)O)NC(=O)c1cc(N=[N+]=[N-])ccc1[N+](=O)[O-])C(C)C)C(=O)N[C@@H](Cc1c[nH]cn1)C(=O)N1CCC[C@H]1C(=O)N[C@@H](Cc1ccccc1)C(=O)O` are 60.4 nM and 7.22.
